# Test results reported in patent US10053485B2, “Cytotoxic agents that preferentially target leukemia inhibitory factor (LIF) for the treatment of malignancies and as new contraceptive agents” (Evestra, Inc., priority 2015, dated 2018).
# Key:
# RPMI-8226 = assay: NCI-60 screen, Leukemia panel; type: cell-based; details: Homo sapiens, RPMI-8226, 48 h
# A549/ATCC = assay: NCI-60 screen, Non-Small Cell Lung Cancer panel; type: cell-based; details: Homo sapiens, A549, 48 h
# HCC-2998 = assay: NCI-60 screen, Colon Cancer panel; type: cell-based; details: Homo sapiens, HCC 2998, 48 h
# UACC-257 = assay: NCI-60 screen, Melanoma panel; type: cell-based; details: Homo sapiens, UACC-257, 48 h
# A498 = assay: NCI-60 screen, Renal Cancer panel; type: cell-based; details: Homo sapiens, A498, 48 h
# RXF 393 = assay: NCI-60 screen, Renal Cancer panel; type: cell-based; details: Homo sapiens, RXF 393, 48 h
# UO-31 = assay: NCI-60 screen, Renal Cancer panel; type: cell-based; details: Homo sapiens, UO-31, 48 h
# MDA-MB-231 ATCC = assay: NCI-60 screen, Breast Cancer panel; type: cell-based; details: Homo sapiens, MDA-MB-231, 48 h
# MDA-MB-468 = assay: NCI-60 screen, Breast Cancer panel; type: cell-based; details: Homo sapiens, MDA-MB-468, 48 h
# Experimental: EC 330 was also tested using the NCI-60 Screening Methodology. The human tumor cell lines of the cancer screening panel are grown in RPMI 1640 medium containing 5% fetal bovine serum and 2 mM L-glutamine. For a typical screening experiment, cells are inoculated into 96 well microtiter plates in 100 μL at plating densities ranging from 5,000 to 40,000 cells/well depending on the doubling time of individual cell lines. After cell inoculation, the microtiter plates are incubated at 37° C., 5% CO2, 95% air and 100% relative humidity for 24 h prior to addition of experimental drugs. […]
# Following drug addition, the plates are incubated for an additional 48 h at 37° C., 5% CO2, 95% air, and 100% relative humidity. […] Bound stain is subsequently solubilized with 10 mM trizma base, and the absorbance is read on an automated plate reader at a wavelength of 515 nm. […] Using the seven absorbance measurements [time zero, (Tz), control growth, (C), and test growth in the presence of drug at the five concentration levels (Ti)], the percentage growth is calculated at each of the drug concentrations levels. Percentage growth inhibition is calculated as: [(Ti−Tz)/(C−Tz)]×100 for concentrations for which Ti>/=Tz [(Ti−Tz)/Tz]×100 for concentrations for which Ti<Tz.
# Three dose response parameters are calculated for each experimental agent. […]
# [1] = system: Patient derived tumor (melanoma): p53, LIF, MDM2, pSTAT3, Ki67; assay: Immunohistochemistry analysis of patient derived tumor; type: cell-based, human; details: 10 nM and 1 uM for 5 days, FIG. 10
# Experimental: Patient derived tumor (melanoma) was treated with the compounds at 10 nM and 1 uM for 5 days in RPMI medium and harvested on day 6 using established protocol and immunohistochemistry was performed for different antibodies including p53, LIF, MDM2, pSTAT3, Ki67.
# [2] = read-out: GI50 (log10GI50) (converted)
# [3] = read-out: LC50 (log10LC50) (converted)
compound,measurement,setting,value
"C#CC(F)(F)[C@]1(O)CCC2C3CCC4=CC(=O)CCC4=C3C(c3ccc(C4CC4)cc3)C[C@@]21C (stereo partly drawn) [EC330, 17α-(1,1-difluoro-2-propyn-1-yl)-17β-hydroxy-11β-[4-p-(cyclopropyl)phenyl]estra-4,9-dien-3-one]",GI50,RPMI-8226; [2],112 nM
same,CC50,RPMI-8226; [3],> 100000 nM
same,GI50,A549/ATCC; [2],2450 nM
same,CC50,A549/ATCC; [3],> 100000 nM
same,GI50,HCC-2998; [2],2950 nM
same,CC50,HCC-2998; [3],> 100000 nM
same,GI50,UACC-257; [2],7080 nM
same,CC50,UACC-257; [3],> 100000 nM
same,GI50,A498; [2],263 nM
same,CC50,A498; [3],3890 nM
same,GI50,RXF 393; [2],1070 nM
same,CC50,RXF 393; [3],> 100000 nM
same,GI50,UO-31; [2],< 10 nM
same,CC50,UO-31; [3],< 10 nM
same,GI50,MDA-MB-231 ATCC; [2],550 nM
same,CC50,MDA-MB-231 ATCC; [3],> 100000 nM
same,CC50,MDA-MB-468; [3],50100 nM
same,GI50,"MDA-MB-468; SRB, read-out: GI50 (log10GI50) (converted)",204 nM
same,"apoptosis, p53, MDM2, LIF mediated STAT3 phosphorylation (immunohistochemistry)",[1],induce apoptosis and restore p53 by inhibiting MDM2 and LIF mediated STAT3 phosphorylation
